Data on one compound can be found in ChEMBL document CHEMBL1156441, “Mechanism of inactivation of plasminogen activator inhibitor-1 by a small molecule inhibitor” (J Biol Chem, 2007).

What all share (set-up): scale not given: the % may be the effect or the level left
The species named for experiment [1] is Homo sapiens. Description: Inhibition of human non-glycosylated PAI1 F114A mutant using urokinase type plasminogen activator substrate assessed as change in IC50 value relative to wild type by direct chromogenic assay.
Experiment [2] is filed under the species Homo sapiens. Description: Inhibition of human non-glycosylated PAI1 T120A mutant using urokinase type plasminogen activator substrate assessed as change in IC50 value relative to wild type by direct chromogenic assay.
Experiment [3] is filed under the species Homo sapiens. Description: Inhibition of human non-glycosylated PAI1 T94A mutant using urokinase type plasminogen activator substrate assessed as change in IC50 value relative to wild type by direct chromogenic assay.
For experiment [4], the species on record is Homo sapiens. Nature of the experiment: Inhibition of human non-glycosylated PAI1 H143A mutant using urokinase type plasminogen activator substrate assessed as change in IC50 value relative to wild type by direct chromogenic assay.
The species named for experiment [5] is Homo sapiens. Description: Inhibition of human non-glycosylated PAI1 K80A mutant using urokinase type plasminogen activator substrate assessed as change in IC50 value relative to wild type by direct chromogenic assay.
The species entered for experiment [6] is Homo sapiens. Description: Inhibition of human non-glycosylated PAI1 Y79A mutant using urokinase type plasminogen activator substrate assessed as change in IC50 value relative to wild type by direct chromogenic assay.
Experiment [7] is filed under the species Homo sapiens. Description: Inhibition of human non-glycosylated PAI1 R76A mutant using urokinase type plasminogen activator substrate assessed as change in IC50 value relative to wild type by direct chromogenic assay.
The species named for experiment [8] is Homo sapiens. Description: Inhibition of human non-glycosylated PAI1 T93A mutant using urokinase type plasminogen activator substrate assessed as change in IC50 value relative to wild type by direct chromogenic assay.
Experiment [9] is filed under the species Homo sapiens. Description: Inhibition of human non-glycosylated PAI1 R118A mutant using urokinase type plasminogen activator substrate assessed as change in IC50 value relative to wild type by direct chromogenic assay.
For experiment [10], the species on record is Homo sapiens. Nature of the experiment: Inhibition of human non-glycosylated PAI1 K122A mutant using urokinase type plasminogen activator substrate assessed as change in IC50 value relative to wild type by direct chromogenic assay.
The species named for experiment [11] is Homo sapiens. Nature of the experiment: Inhibition of human non-glycosylated PAI1 D95A mutant using urokinase type plasminogen activator substrate assessed as change in IC50 value relative to wild type by direct chromogenic assay.

Regarding `O=C(O)C(=O)c1cn(Cc2ccccc2)c2ccc(-c3ccc(OC(F)(F)F)cc3)cc12`, the Activity is 3% in the experiment filed under Homo sapiens [1]; -21% in the experiment listed under Homo sapiens [2]; 54% in the experiment filed under Homo sapiens [3]; -14% in the experiment listed under Homo sapiens [4]; 14% in the experiment filed under Homo sapiens [5]; 28% in the experiment filed under Homo sapiens [6]. Besides, the Activity in the experiment listed under Homo sapiens [7] is 48%; in the experiment filed under Homo sapiens [8] it was 27%; in the experiment filed under Homo sapiens [9], 7%; in the experiment filed under Homo sapiens [10] it was -25%; in the experiment listed under Homo sapiens [11] it was 58%.
